One assay addresses immobilized Aβ fibrils (Homo sapiens, UniProt P05067). Kind of assay: FAC-MS assay of free Aβ monomer (indicator) binding to immobilized Aβ fibrils in the presence of test compounds.
Details: not given
Chain of immobilized Aβ fibrils (P05067 672-713 limits assumed): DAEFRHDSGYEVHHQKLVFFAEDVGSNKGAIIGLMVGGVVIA
Turning to `CC1CCC(C(C)C)C(OC(=O)c2ccccc2N)C1` (centres unmarked), the “Aβ Shift” value turned out to be 1.

The same assay, now with this note: FAC-MS % shift of breakthrough time of free Aβ1-42 monomer (1 μM) on immobilized Aβ fibrils; compounds 1-10 μM in 20 mM NH4OAc, 1% DMSO; void marker M3.
For the compound `O=P(O)(O)O[C@H]1[C@H](OP(=O)(O)O)[C@@H](OP(=O)(O)O)[C@H](OP(=O)(O)O)[C@@H](OP(=O)(O)O)[C@H]1OP(=O)(O)O` [Compound P-3168, Phytic acid, reference compound], the “% of Shift” value was 2%.
The same measure, in the same setting: in the case of `O[C@H]1[C@H](O)[C@@H](O)[C@@H]2O[C@@H]2[C@@H]1O` [Compound C5424, Conduritol B epoxide, reference compound] it was 1%.
As for `O=C(/C=C/c1ccc(O)c(O)c1)O[C@@H]1C[C@](O)(C(=O)O)C[C@@H](O)[C@H]1O` [Compound C-3878, Chlorogenic acid, reference compound], the “% of Shift” value was found to be 2%.
Still for that read-out and setting: in the case of `CO[C@H]1[C@H](O)[C@@H](O)[C@@H](O)[C@H](O)[C@@H]1O` [D-Pinitol, D-pinitol, reference compound] it was 3%; in that of `OC1C(O)C(O)C(O)C(O)C1O` (centres unmarked) [Chiro, chiro-inositol, reference compound], 2%.
Still for that read-out and setting: in the case of `CCC(=O)OC1C(OC(=O)CC)C(OC(=O)CC)C(OC(=O)CC)C(OC(=O)CC)C1OC(=O)CC` (centres unmarked) [Compound 37387006, 2,3,4,5,6-pentakis(propionyloxy)cyclohexyl propionate] it was 4%.
Same read-out and setting: with `OC1[C@@H](O)[C@H](O)C(O[C@H]2OC[C@H](O)[C@H](O)[C@H]2O)[C@H](O)[C@H]1O` (stereo partly drawn) [Compound A-9826, 2-O-b-L-Arabinopyranosyl myo-inositol, reference compound] the figure was 3%; with “1,2,5,6-bis-O-(1-Methylethyldene)-3-methyl-1D-chiro-inositol [Compound 53234-7, reference compound]”, 4%; with `CC(C)CC(=O)OC1C(O)C(OC(=O)CC(C)C)C(OC(=O)CC(C)C)C(OC(=O)CC(C)C)C1OC(=O)CC(C)C` (centres unmarked) [Compound 37387009, 2-hydroxy-3-4,5,6-tetrakis[(3-methylbutanoyl)oxo]cyclohexyl 3-methylbutanoate], 2%.
Regarding `COC1C(O)C2OC3(CCCCC3)OC2C2OC3(CCCCC3)OC12` (racemic) [Compound 53226-6, 1,2,3,4-DL-O-cyclohexyldene-5-O-methyl-L-chiro-inositol, reference compound], the “% of Shift” value was determined as 2%.

Staying with this assay, now noted: FAC-MS % shift of free Aβ monomer breakthrough on immobilized Aβ fibrils in presence of the compound (screen, Table 2).
For `Oc1c(I)cc(Cl)c2cccnc12`, the “Aβ Shift” value was 2.

The assay is the same for the next values; noted with them: FAC-MS screen; shift of free Aβ monomer breakthrough on immobilized Aβ fibrils in presence of compound; scale not given.
With `CC12CC3(C)CC(C)(C1)CC(CC(=O)O)(C2)C3`, the “Aβ Shift” value stood at 1.
Same read-out and setting: with `CC1CC(NC(=O)c2cccs2)CC(C)(C)C1` (centres unmarked) the figure was 0.
With `CC1CCCC(NC(=O)CCC2CCCCC2)C1C` (centres unmarked), the “Aβ Shift” value came to 0.
The same measure, in the same setting: in the case of `CC(=O)O[C@@H]1[C@@H](OC(=O)C(C)(C)C)[C@H](OC(=O)C(C)(C)C)[C@H](OC(C)=O)[C@H](OC(=O)C(C)(C)C)[C@H]1OC(=O)C(C)(C)C` it was 4.
Same read-out and setting: with `CC12CC3(C)CC(C)(C1)CC(C1(C)CC(=O)O1)(C2)C3` (centres unmarked) the figure was 0; with `CC1CCC(C(C)C)C(OCCC[N+](C)(C)C)C1` (centres unmarked), 2; with `CC(NC(=O)C12CC3(C)CC(C)(CC(C)(C3)C1)C2)C(=O)O` (centres unmarked), 2.
Same read-out and setting: with `C/C(=N\O)C(=O)OC1CC(C)CCC1C(C)C` (centres unmarked) the figure was 1; with `CC12CC3CC(CO)(C1)CC(c1ccccc1)(C3)C2` (centres unmarked), 1.
Turning to `COC(=O)C1(C)CC2(C)CC(C)(C1)C(=O)N(C)C2=O` (centres unmarked), the “Aβ Shift” value stood at 1.
Still for that read-out and setting: with `CC(C)(C)C(=O)O[C@@H]1[C@@H](OC(=O)C(C)(C)C)[C@H](OC(=O)C(C)(C)C)[C@H](O)[C@H](OC(=O)C(C)(C)C)[C@H]1OC(=O)C(C)(C)C` the figure was 5.
Take `CC12CC3CC(C)(C1)CC(N)(C3)C2`: the “Aβ Shift” value is recorded as 2.
For `CC1(C(=O)O)CC(C)(C(=O)O)CC(C)(C(=O)O)C1` (centres unmarked), the “Aβ Shift” value is reported as 1.
Still for that read-out and setting: in the case of `CC1CC(NS(=O)(=O)c2cccs2)CC(C)(C)C1` (centres unmarked) it was 2.
Consider `CC12CC3CC(C)(C1)CC(C(N)=O)(C3)C2`, for which the “Aβ Shift” value is 1.
With `CC12CC3(C)CC(C)(C1)CC(C(=O)NCCO)(C2)C3`, the “Aβ Shift” value stood at 2.
Take `CC12CC3CC(C)(C1)CC(C(Cl)C(=O)O)(C3)C2` (centres unmarked): the “Aβ Shift” value amounted to 1.
Still for that read-out and setting: with `CCN1CCC(NC2CCCC(C)C2C)CC1` (centres unmarked) the figure was 1; with `CC1CCC(C(C)C)C(OCC(O)CN2CCCCC2)C1` (centres unmarked), 1; with `CCC12CC3CC(O)(CC(O)(C3)C1)C2`, 1.
The same measure, in the same setting: with `CC1CCC(C(C)C)C(OC(=O)CCc2ccccc2)C1` (centres unmarked) the figure was 1; with `CC1CCC(C(C)C)C(OC(=O)CN2CCOCC2)C1` (centres unmarked), 1; with `CC12CC3CC(C)(C1)CC(C(=O)NC(C)(C)CO)(C3)C2`, 1.
As to `CC1CCCC(NC(=O)c2cc3sccc3n2C)C1C` (centres unmarked), the “Aβ Shift” value stood at 2.
The same measure, in the same setting: with `CC1CCC(C(C)(C)C)C(O)C1` (centres unmarked) the figure was 1.
Still for that read-out and setting: in the case of `CC1C2CC3(C)CC(C(=O)O)(C2)CC1(C)C3` (centres unmarked) it was 1; in that of `CC12CC3(C)CC(C)(C1)CC(N)(C2)C3`, 1.
For `O=C(O[C@@H]1[C@@H](OC(=O)c2ccccc2)[C@H](OC(=O)c2ccccc2)[C@H](O)[C@H](OC(=O)c2ccccc2)[C@H]1OC(=O)c1ccccc1)c1ccccc1`, the “Aβ Shift” value was found to be 2.
On the same count and under the same terms, in the case of `CC1CC(C(=O)O)CC(C(=O)O)C1` (centres unmarked) it was 0; in that of `CC1CCCC(NC(=O)Nc2cccs2)C1C` (centres unmarked), 2; in that of `CC1CC(C)CC(OC(=O)c2ccco2)C1` (centres unmarked), 0.
Same read-out and setting: in the case of `CC1CCCC(NC(=O)C2CCCCC2C(=O)O)C1C` (centres unmarked) it was 0; in that of `CC1(C)CC(=O)C2=C(C1)CC1(C)CC(C)(C)CC2(C#N)C1` (centres unmarked), 0; in that of `CC1CCCC(NC(=O)c2ccccc2C(=O)O)C1C` (centres unmarked), 2.
For the compound `COC(=O)CNC(=O)C12CC3(C)CC(C)(CC(C)(C3)C1)C2`, the “Aβ Shift” value is on record as 1.
The same measure, in the same setting: with `CCC1CC2(C(=O)NCc3ccco3)CC3(C)CC3(C1)C2` (centres unmarked) the figure was 1.
On to `CC1CCC(N(CCCN)Cc2ccco2)CC1C` (centres unmarked), for which the “Aβ Shift” value is reported as 1.
For `CC1CCN(C(=O)C23CC4CC(C)(CC(C)(C4)C2)C3)CC1`, the “Aβ Shift” value was 1.
As for `CC1CCC(C(C)C)C(OC(=O)NC(=O)C(F)(F)F)C1` (centres unmarked), the “Aβ Shift” value worked out at 2.
The same measure, in the same setting: with `COC1CCC(C(C)=O)C(O)C1` (centres unmarked) the figure was 1; with `CC12CC3(C)CC(C)(C1)CC(C(=O)NCC(=O)O)(C2)C3`, 1; with `CC1CCCC(C)C1CO` (centres unmarked), 1.
On the same count and under the same terms, in the case of `CCCNC(=O)C12CC3(C)CC(C)(CC(C)(C3)C1)C2` it was 1; in that of `O=C(O)C1C2CC3C(OC(=O)C31)C2Cl` (centres unmarked), 2; in that of `CC12CC3(C)CC(C)(C1)CC(C(N)=O)(C2)C3`, 1.
Still for that read-out and setting: in the case of `CC12CC3(C)CC(C(=O)O)(C1)CC(C(=O)O)(C2)C3` it was 1; in that of `CC1CCC(C(C)C)C(OC(=O)NN)C1` (centres unmarked), 1; in that of `CC(=O)NC1CC(Cl)CCC1C` (centres unmarked), 1.
Consider `CC(=O)NC12CC3(C)CC(C)(CC(C)(C3)C1)C2`, for which the “Aβ Shift” value worked out at 0.
Still for that read-out and setting: with `CC12CC3CC(C)(C1)CC(C(=O)NO)(C3)C2` the figure was 1; with `CC1CCCC(n2c(=S)[nH]c3ccccc3c2=O)C1C` (centres unmarked), 1.
Same read-out and setting: in the case of `CC1CCC(C(C)C)C(OCC[N+](C)(C)C)C1` (centres unmarked) it was 2.
Same read-out and setting: with `CC1CC(OC(=O)/C=C/c2ccccc2)CC(C(C)C)C1` (centres unmarked) the figure was 0; with `CC1CCC(C(C)C)C(OC(=O)CSC#N)C1` (centres unmarked), 1.
In the case of `CCN(CC)CC12CC3CC(C)(CC(C)(C3)C1)C2`, the “Aβ Shift” value came out at 2.
Still for that read-out and setting: with `Cc1ccc[n+](CC(=O)OC2CC(C)CCC2C(C)C)c1` (centres unmarked) the figure was 1.
`CC1CC(NC(=O)C2(C)CC2(Cl)Cl)CC(C)(C)C1` (centres unmarked): the “Aβ Shift” value is given as 0.
`CC1CCCC(NC(=O)c2cc3c(s2)CSC3)C1C` (centres unmarked): the “Aβ Shift” value is given as 1.
The same measure, in the same setting: with `CC1CC(C)(C(=O)O)CCC1(C)C` (centres unmarked) the figure was 0.
For the compound `CC(O)C12C3C4C5C1C2C(Br)(C43)C51OCCO1` (centres unmarked), the “Aβ Shift” value came to 0.
Still for that read-out and setting: in the case of `CCC(=O)OC1CCC(C)CC1C(C)(C)C(C)C` (centres unmarked) it was 1.
Same read-out and setting: in the case of `CC1CCC(C(C)C)C(OCC(O)CNC(C)C)C1` (centres unmarked) it was 1.
Consider `CC12CC3(C)CC(N)(C1)CC(O)(C2)C3`, for which the “Aβ Shift” value is on record as 1.
On the same count and under the same terms, with `CC12CC3(C)CC(N)(C1)CC(C(=O)O)(C2)C3` the figure was 2; with `CC1CCC(C(C)C)C(OC(=O)c2ccco2)C1` (centres unmarked), 2; with `BrC1CC2OC2CC1Br` (centres unmarked), 0.
As to `CC1CCCC(NC(=O)c2nc[nH]n2)C1C` (centres unmarked), the “Aβ Shift” value came out at 0.
Same read-out and setting: with `O=C(O)C12CC3CC(C(=O)O)(C1)CC(C(=O)O)(C3)C2` the figure was 2; with `C=CCNC(=O)C12CC3(C)CC(C)(CC(C)(C3)C1)C2`, 1; with `CC1CCC(C(C)C)C(OC(=O)C(O)O)C1` (centres unmarked), 1.
With `CN(C)CCNC(=O)C12CC3CC(C)(CC(C)(C3)C1)C2`, the “Aβ Shift” value is on record as 1.
Take `CC(=O)NC12CC3(C)CC(C)(C1)CC(NC(C)=O)(C3)C2`: the “Aβ Shift” value amounted to 1.
Take `CC1CCC(C(C)CS)CC1S` (centres unmarked): the “Aβ Shift” value was found to be 1.
Same read-out and setting: in the case of `CC1CC2=C(/C(=N/O)C1)C1(O)CC(C)CC(C)(C2)C1` (centres unmarked) it was 0; in that of `CC(N)C12CC3CC(C)(CC(C)(C3)C1)C2` (centres unmarked), 0.
Still for that read-out and setting: with `CC12CC3CC(O)(C1)CC(O)(C3)C2` the figure was 1.

Staying with this assay, now noted: increasing concentrations; breakthrough curves shifted to the left (greater % shift); FIG. 3.
As for `O[C@H]1[C@H](O)[C@@H](O)[C@H](O)[C@@H](O)[C@@H]1O` [scyllo-cyclohexanehexyl, scyllo-inositol, reference compound], the “effect of increasing concentrations on free Aβ monomer binding time” value is “dose dependent reduction in the free Aβ monomer binding time”.

(Values after patent publication US20110028719A1, “SCREENING METHODS FOR AMYLOID BETA MODULATORS” (priority 2006, published 2011).)
